Measurements as given in PubChem BioAssay AID248 (DTP/NCI, 2004).
Inconclusive results and toxic doses are left out. Rule as the data show it: active = T/C of 150% or more; inactive = T/C below 125%.

Tested on: L1210 leukemia ip in BDF1 mice, survival T/C
Experiment: NCI In Vivo Anticancer Drug Screen. Data for tumor model L1210 Leukemia (intraperitoneal) in B6D2F1 (BDF1) mice
Conditions: endpoint: mean survival time, higher = longer survival
Summary of the method: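 Transplanted-tumor mice were given test agent; controls received vehicle only. Survival readings from the two groups were divided (treated over control).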

[1] = dose: 100.0 mg/kg/injection, schedule: Q04DX003 (ip), vehicle: Klucel (hydroxypropylcellulose) (HPC)
[2] = dose: 200.0 mg/kg/injection, schedule: Q04DX003 (ip), vehicle: Klucel (hydroxypropylcellulose) (HPC)
[3] = dose: 400.0 mg/kg/injection, schedule: Q04DX003 (ip), vehicle: Klucel (hydroxypropylcellulose) (HPC)
[4] = dose: 100.0 mg/kg/injection, schedule: Q01DX001 (ip), vehicle: carboxymethylcellulose (CMC)
[5] = dose: 200.0 mg/kg/injection, schedule: Q01DX001 (ip), vehicle: carboxymethylcellulose (CMC)

Measured: T/C

C[C@]12CC[C@@H]3c4ccc(OC5CCCCO5)cc4CC[C@H]3[C@@H]1CC[C@@H]2O (stereo partly specified)
inactive: dose: 146.0 mg/kg/injection, schedule: Q01DX Z (ip), vehicle: steriod suspending solution 96 % of control | dose: 220.0 mg/kg/injection, schedule: Q01DX Z (ip), vehicle: steriod suspending solution 94 % of control | dose: 330.0 mg/kg/injection, schedule: Q01DX Z (ip), vehicle: steriod suspending solution 98 % of control | dose: 500.0 mg/kg/injection, schedule: Q01DX001 (sc), vehicle: steriod suspending solution 102 % of control | dose: 500.0 mg/kg/injection, schedule: Q01DX Z (ip), vehicle: steriod suspending solution 90 % of control | dose: 600.0 mg/kg/injection, schedule: Q01DX001 (sc), vehicle: steriod suspending solution 100 % of control | dose: 700.0 mg/kg/injection, schedule: Q01DX001 (sc), vehicle: steriod suspending solution 96 % of control | dose: 800.0 mg/kg/injection, schedule: Q01DX001 (sc), vehicle: steriod suspending solution 102 % of control

CC1CC([O-])=N/[N+]1=C\c1ccccc1 (stereo unspecified)
inactive: dose: 100.0 mg/kg/injection, schedule: Q01DX001 (ip), vehicle: saline 97 % of control | dose: 100.0 mg/kg/injection, schedule: Q01DX009 (ip), vehicle: saline with Tween-80 96 % of control | dose: 200.0 mg/kg/injection, schedule: Q01DX001 (ip), vehicle: saline 95 % of control | dose: 200.0 mg/kg/injection, schedule: Q01DX009 (ip), vehicle: saline with Tween-80 87 % of control | dose: 400.0 mg/kg/injection, schedule: Q01DX001 (ip), vehicle: saline 97 % of control

CC/C(Cc1ccc(O)cc1)=N\N=C(N)N
inactive: dose: 15.0 mg/kg/injection, schedule: Q01DX Z (ip), vehicle: methylcellulose (MC) 97 % of control | dose: 30.0 mg/kg/injection, schedule: Q01DX Z (ip), vehicle: methylcellulose (MC) 94 % of control | dose: 30.0 mg/kg/injection, schedule: Q01DX Z (oral), vehicle: methylcellulose (MC) 92 % of control | dose: 60.0 mg/kg/injection, schedule: Q01DX Z (ip), vehicle: methylcellulose (MC) 97 % of control | dose: 60.0 mg/kg/injection, schedule: Q01DX Z (oral), vehicle: methylcellulose (MC) 98 % of control | dose: 240.0 mg/kg/injection, schedule: Q01DX Z (oral), vehicle: methylcellulose (MC) 93 % of control

O=c1[nH]ccc2n[nH]nc12
inactive: dose: 100.0 mg/kg/injection, schedule: Q01DX001 (ip), vehicle: other 104 % of control | dose: 100.0 mg/kg/injection, schedule: Q04DX003 (ip), vehicle: other 96 % of control | dose: 200.0 mg/kg/injection, schedule: Q01DX001 (ip), vehicle: other 101 % of control | dose: 200.0 mg/kg/injection, schedule: Q04DX003 (ip), vehicle: other 105 % of control | dose: 400.0 mg/kg/injection, schedule: Q01DX001 (ip), vehicle: other 104 % of control | dose: 400.0 mg/kg/injection, schedule: Q04DX003 (ip), vehicle: other 102 % of control

C/C(=N\N=C(N)N)c1cccc(NC(=S)Nc2cccc(/C(C)=N/N=C(N)N)c2)c1
inactive: dose: 20.0 mg/kg/injection, schedule: Q01DX005 (ip), vehicle: saline with Tween-80 108 % of control

COc1ccc(NCc2ccccc2C#N)c(OC)c1
inactive: [1] 103 % of control | [2] 108 % of control | [3] 103 % of control

Nc1nc(N)c(N=O)c(Nc2ccc(I)cc2)n1
inactive: dose: 40.0 mg/kg/injection, schedule: Q01DX Z (ip), vehicle: carboxymethylcellulose (CMC) 102 % of control | dose: 50.0 mg/kg/injection, schedule: Q01DX009 (ip), vehicle: acetone 108 % of control | dose: 50.0 mg/kg/injection, schedule: Q04DX003 (ip), vehicle: carboxymethylcellulose (CMC) 109 % of control | dose: 60.0 mg/kg/injection, schedule: Q01DX Z (ip), vehicle: carboxymethylcellulose (CMC) 104 % of control | dose: 90.0 mg/kg/injection, schedule: Q01DX Z (ip), vehicle: carboxymethylcellulose (CMC) 88 % of control | [4] 101 % of control | dose: 100.0 mg/kg/injection, schedule: Q01DX009 (ip), vehicle: acetone 106 % of control | dose: 100.0 mg/kg/injection, schedule: Q04DX003 (ip), vehicle: carboxymethylcellulose (CMC) 106 % of control | dose: 135.0 mg/kg/injection, schedule: Q01DX Z (ip), vehicle: carboxymethylcellulose (CMC) 89 % of control | [5] 101 % of control | dose: 200.0 mg/kg/injection, schedule: Q04DX003 (ip), vehicle: carboxymethylcellulose (CMC) 96 % of control

COc1ccccc1NC(=O)NO
inactive: [4] 97 % of control | [5] 97 % of control | dose: 400.0 mg/kg/injection, schedule: Q01DX001 (ip), vehicle: carboxymethylcellulose (CMC) 100 % of control

O=S(=O)(F)c1ccc(-c2cc(Cl)c3cc(F)ccc3n2)cc1
inactive: [1] 105 % of control | [2] 106 % of control | [3] 106 % of control
